For 13 molecules, Activity results are on record in US11136313B2, “Compounds, compositions, and methods for modulating CFTR” (Proteostasis Therapeutics, Inc., priority 2015, dated 2021).

Molecules are shown by their SMILES.

The target in the test is T1, ΔF508-CFTR (Homo sapiens, UniProt P13569, DEL508-508).
T1 construct: Primary lung epithelial cells homozygous for the Cystic Fibrosis-causing ΔF508 mutation were differentiated for a minimum of 4 weeks; endogenous in cells; host or cells: primary lung epithelial cells (hBE) homozygous for ΔF508, differentiated at an air-liquid interface
Kind of test: hBE equivalent current (Ieq) assay: AUC of equivalent chloride current after forskolin/VX-770 in primary lung epithelial cells homozygous for ΔF508. The conditions noted are these: relative to CFTR amplifier (Compound A)+VX-809 (3 uM), compound at 10 uM and Compound A at 3 uM, 24 h treatment. Type of test: cell-based. Here is the method:
ii. hBE Equivalent Current (Ieq) Assay
Primary lung epithelial cells homozygous for the Cystic Fibrosis-causing ΔF508 mutation were differentiated for a minimum of 4 weeks in an air-liquid interface on Costar 24 well HTS filter plates prior to the equivalent current (Ieq) measurements. Cells were apically mucus-washed for 30 minutes 24 h prior to treatment with compounds. The basolateral media was removed and replaced with media containing the compound of interest diluted to its final concentration from DMSO stocks. Treated cells were incubated at 37° C. and 5% CO2 for 24 hours. At the end of the treatment period, the media was changed to the Ieq experimental solution for 2 hours before the experiment and plates are maintained in a CO2-free incubator during this period. The plates containing the cells were then placed in pre-warmed heating blocks at 36° C.±0.5 for 15 minutes before measurements are taken. The transepithelial voltage (VT) and conductance (GT) were measured using a custom 24 channel current clamp (TECC-24) with 24 well electrode manifold. The Ieq assay measurements were made following additions with standardized time periods: • 1. The baseline VT and GT values were measured for approximately 20 minutes. • 2. Benzamil was added to block ENaC for 15 minutes. • 3. Forskolin plus VX-770 were added to maximally activate ΔF508-CFTR for 27 minutes. • 4. Bumetanide was added to inhibit the NaK2Cl cotransporter and shut-off secretion of chloride.
The activity data captured was the area under the curve (AUC) for the traces of the equivalent chloride current. The AUC was collected from the time of the forskolin/VX-770 addition until the inhibition by bumetanide addition. Correction in response to compound treatment was scored as the increase in the AUC for compound-treated samples over that of vehicle-treated samples.
(+ indicates activity<50% of an CFTR amplifier (Compound A)+VX-809 (3 uM) with compound at 10 uM and Compound A at 3 uM; ++ indicates activity>50% of CFTR amplifier+VX-809 (3 uM) with compound at 10 uM and Compound A at 3 uM.

T1 sequence (P13569 with tags, fused parts or gaps DEL508-508): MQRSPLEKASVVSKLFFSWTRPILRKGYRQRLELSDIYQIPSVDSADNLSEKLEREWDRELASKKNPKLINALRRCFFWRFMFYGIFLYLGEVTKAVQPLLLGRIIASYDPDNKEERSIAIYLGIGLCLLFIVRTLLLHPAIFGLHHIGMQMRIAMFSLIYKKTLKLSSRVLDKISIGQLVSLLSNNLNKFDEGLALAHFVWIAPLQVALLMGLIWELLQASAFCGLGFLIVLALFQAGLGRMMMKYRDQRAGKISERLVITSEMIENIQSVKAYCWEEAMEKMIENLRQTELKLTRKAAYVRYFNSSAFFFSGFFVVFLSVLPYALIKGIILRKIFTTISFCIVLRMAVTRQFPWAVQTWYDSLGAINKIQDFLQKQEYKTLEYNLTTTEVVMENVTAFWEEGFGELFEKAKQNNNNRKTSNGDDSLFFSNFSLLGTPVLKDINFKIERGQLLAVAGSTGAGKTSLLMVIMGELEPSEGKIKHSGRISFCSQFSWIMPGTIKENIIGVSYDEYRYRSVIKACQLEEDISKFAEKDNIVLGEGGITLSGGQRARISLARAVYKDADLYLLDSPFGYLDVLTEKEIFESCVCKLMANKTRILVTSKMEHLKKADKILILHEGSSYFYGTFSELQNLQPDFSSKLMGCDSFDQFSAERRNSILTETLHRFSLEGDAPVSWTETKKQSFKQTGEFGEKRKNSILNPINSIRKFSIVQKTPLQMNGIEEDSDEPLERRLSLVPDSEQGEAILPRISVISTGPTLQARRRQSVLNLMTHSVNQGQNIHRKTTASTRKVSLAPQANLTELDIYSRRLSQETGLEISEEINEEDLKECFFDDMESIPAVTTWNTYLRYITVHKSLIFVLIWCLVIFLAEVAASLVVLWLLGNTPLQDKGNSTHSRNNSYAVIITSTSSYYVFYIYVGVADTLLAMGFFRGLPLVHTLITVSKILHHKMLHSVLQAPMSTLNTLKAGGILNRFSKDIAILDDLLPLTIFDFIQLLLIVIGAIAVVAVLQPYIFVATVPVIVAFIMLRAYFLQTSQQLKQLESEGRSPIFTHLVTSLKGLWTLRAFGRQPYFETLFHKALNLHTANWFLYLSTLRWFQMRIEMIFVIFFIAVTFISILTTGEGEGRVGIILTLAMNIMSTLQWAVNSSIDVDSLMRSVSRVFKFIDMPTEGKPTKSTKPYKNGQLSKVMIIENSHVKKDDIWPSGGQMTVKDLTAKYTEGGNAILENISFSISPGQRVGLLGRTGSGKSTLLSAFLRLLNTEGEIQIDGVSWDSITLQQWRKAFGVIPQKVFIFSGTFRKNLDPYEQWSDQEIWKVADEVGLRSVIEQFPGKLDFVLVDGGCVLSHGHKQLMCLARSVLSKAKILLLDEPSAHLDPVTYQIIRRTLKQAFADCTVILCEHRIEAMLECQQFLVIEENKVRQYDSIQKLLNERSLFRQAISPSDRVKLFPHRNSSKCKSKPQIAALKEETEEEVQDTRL

`Cc1cccc(C)c1COc1ccc(C)c2nc(-c3sc4ccccc4c3C)cc(C(=O)[O-])c12.[Na+]` [Compound 305]: the Activity result is “++ (activity>50% of CFTR amplifier+VX-809 (3 uM) with compound at 10 uM and Compound A at 3 uM)”.

`Cc1c(-c2cc(C(=O)O)c3c(OC(C)c4ccc5nccn5c4)ccc(C)c3n2)oc2ccccc12` (stereo not shown) [Compound 347]: the Activity entry is “+ (activity<50% of an CFTR amplifier (Compound A)+VX-809 (3 uM) with compound at 10 uM and Compound A at 3 uM)”. Take `CCc1ccc(OCc2ccccc2)c2c(C(=O)O)cc(-c3c(C)c4ccccc4n3C)nc12` [Compound 147, 5-(Benzyloxy)-2-(1,3-dimethyl-1H-indol-2-yl)-8-ethylquinoline-4-carboxylic acid]: the Activity entry was “+ (activity<50% of an CFTR amplifier (Compound A)+VX-809 (3 uM) with compound at 10 uM and Compound A at 3 uM)”. With `CCc1ccc(OCc2ccc(-c3cccnc3)cc2)c2c(C(=O)O)cc(-c3csc4ccccc34)nc12` [Compound 195], the Activity entry is “++ (activity>50% of CFTR amplifier+VX-809 (3 uM) with compound at 10 uM and Compound A at 3 uM)”. `Cc1c(-c2cc(C(=O)[O-])c3c(OCc4ccc(S(C)(=O)=O)cc4)ccc(C)c3n2)oc2ccccc12.[Na+]` [Compound 263]: the Activity entry was “++ (activity>50% of CFTR amplifier+VX-809 (3 uM) with compound at 10 uM and Compound A at 3 uM)”. The entry for `Cc1c(-c2cc(C(=O)[O-])c3c(OC[C@H]4C[C@](C)(O)C4)ccc(C)c3n2)oc2ccccc12.[Na+]` [Compound 375] is “++ (activity>50% of CFTR amplifier+VX-809 (3 uM) with compound at 10 uM and Compound A at 3 uM)”; for `Cc1ccc(C)c2c(C(=O)O)cc(-c3cc4ccccc4s3)nc12` [Compound 13, 2-(1-Benzothiophen-2-yl)-5,8-dimethylquinoline-4-carboxylic acid] it is “+ (activity<50% of an CFTR amplifier (Compound A)+VX-809 (3 uM) with compound at 10 uM and Compound A at 3 uM)”.

Turning to `Cc1ccc(O[C@H](C)c2ccccc2)c2c(C(=O)[O-])cc(-c3cn4ccccc4n3)nc12.[Na+]` [Compound 202, Sodium 2-[Imidazo[1,2-a]pyridin-2-yl]-8-methyl-5-[(1R)-1-phenylethoxy]quinoline-4-carboxylate], the Activity result is “+ (activity<50% of an CFTR amplifier (Compound A)+VX-809 (3 uM) with compound at 10 uM and Compound A at 3 uM)”. Take `Cc1c(-c2cc(C(=O)O)c3c(C)ccc(C)c3n2)oc2c(F)cccc12` [Compound 130, 2-(7-Fluoro-3-methyl-1-benzofuran-2-yl)-5,8-dimethylquinoline-4-carboxylic acid]: the Activity entry is “+ (activity<50% of an CFTR amplifier (Compound A)+VX-809 (3 uM) with compound at 10 uM and Compound A at 3 uM)”.

Consider `Cc1c(-c2cc(C(=O)[O-])c3c(O[C@@H](C)C4CCN(S(C)(=O)=O)CC4)ccc(C)c3n2)oc2ccccc12.[Na+]` [Compound 248, Sodium 5-[(1S)-1-(1-Methanesulfonylpiperidin-4-yl)ethoxy]-8-methyl-2-(3-methyl-1-benzofuran-2-yl)quinoline-4-carboxylate], for which the Activity entry is “++ (activity>50% of CFTR amplifier+VX-809 (3 uM) with compound at 10 uM and Compound A at 3 uM)”.

Consider `Cc1c(-c2cc(C(=O)[O-])c3c(O[C@@H](C)c4ccccc4)ccc(C)c3n2)oc2ccccc12.[Na+]` [Compound 213], for which the Activity entry was “++ (activity>50% of CFTR amplifier+VX-809 (3 uM) with compound at 10 uM and Compound A at 3 uM)”. Regarding `Cc1c(-c2cc(C(=O)O)c3c(C)ccc(C)c3n2)oc2c(OCc3ccccc3)cccc12` [Compound 132, 2-[7-(Benzyloxy)-3-methyl-1-benzofuran-2-yl]-5,8-dimethylquinoline-4-carboxylic acid], the Activity entry is “++ (activity>50% of CFTR amplifier+VX-809 (3 uM) with compound at 10 uM and Compound A at 3 uM)”. For the molecule `Cc1cc(C)c2nc(-c3cc4ccccc4s3)nc(C(=O)O)c2c1` [Compound 4, 2-(1-Benzothiophen-2-yl)-6,8-dimethylquinazoline-4-carboxylic Acid], the Activity result is “+ (activity<50% of an CFTR amplifier (Compound A)+VX-809 (3 uM) with compound at 10 uM and Compound A at 3 uM)”.
